Earlier results as cited in patent US20110053979A1, “PYRIDINE DERIVATIVES USED TO TREAT OREXIN RELATED DISORDERS” (priority 2008, published 2011).

Legend:
rats [1] = test system: rats
rats [2] = test system: rats; remark: listed apart in the source
rats [3] = conditions: central administration at the onset of the normal sleep period, rat
freely-feeding rats = conditions: central administration, 4 hour time period

Molecule | effect on hedonic eating (rats [1]) | effect on high-fat pellet self-administration (rats [2]) | effect on arousal (rats [3]) | increase of food intake over control rats receiving vehicle (freely-feeding rats)
Cc1nc2ccc(NC(=O)Nc3ccnc4cccnc34)cc2o1 [SB334867] | potently reduced hedonic eating | attenuated high-fat pellet self-administration |  | 
orexin-A: polypeptide ligand for the orexin-1 receptor; an agonist of the orexin receptors (QPLPDCCRQKTCSCRLYELLHGAGNHAAGILTL; Orexin-A; UniProt O43612 34-66, looked up) |  |  | dose-related increase in arousal | approximately four-fold
